# Measured values published in ChEMBL document CHEMBL1144190, “Structure-activity relationship study of a novel necroptosis inhibitor, necrostatin-7” (Bioorg Med Chem Lett, 2008).
# Calls of active or inactive are those of the source. The rule behind the calls is not given here.
# Target: T1, Receptor-interacting serine/threonine-protein kinase 1 (Homo sapiens) (UniProt Q13546)
# T1 sequence (whole entry): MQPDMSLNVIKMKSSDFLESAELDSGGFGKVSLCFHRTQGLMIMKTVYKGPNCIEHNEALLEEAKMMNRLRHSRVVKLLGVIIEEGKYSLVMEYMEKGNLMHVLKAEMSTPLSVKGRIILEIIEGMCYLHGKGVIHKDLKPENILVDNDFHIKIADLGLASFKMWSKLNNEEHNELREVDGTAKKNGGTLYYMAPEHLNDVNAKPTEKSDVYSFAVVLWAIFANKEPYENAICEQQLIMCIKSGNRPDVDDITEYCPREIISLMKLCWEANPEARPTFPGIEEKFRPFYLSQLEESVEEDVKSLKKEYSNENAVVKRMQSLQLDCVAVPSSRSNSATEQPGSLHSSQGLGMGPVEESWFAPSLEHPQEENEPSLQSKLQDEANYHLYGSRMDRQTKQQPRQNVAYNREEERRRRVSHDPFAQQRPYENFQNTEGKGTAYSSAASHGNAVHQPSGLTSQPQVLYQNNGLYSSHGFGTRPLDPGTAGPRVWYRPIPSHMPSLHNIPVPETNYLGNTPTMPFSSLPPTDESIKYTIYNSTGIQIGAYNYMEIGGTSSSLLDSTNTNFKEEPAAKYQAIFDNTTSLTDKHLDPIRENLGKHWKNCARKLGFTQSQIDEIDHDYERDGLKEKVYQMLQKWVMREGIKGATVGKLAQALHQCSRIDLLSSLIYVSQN
# Test: Inhibition of GST-tagged human recombinant RIP1 kinase expressed in Sf9 cells
row,Activity,Structure (SMILES)
1,inactive,N=C1S/C(=C\c2c[nH]nc2-c2ccc(S(=O)(=O)c3ccccc3)cc2)C(=O)N1c1nccs1

# Test system: Jurkat
# Test: Inhibition of TNF-alpha-induced necroptosis in FADD-deficient human Jurkat cells
# Assay type: functional, cell-based
Structure (SMILES),EC50 [µM],Activity
N=C1S/C(=C\c2c[nH]nc2-c2ccc(F)c(F)c2)C(=O)N1c1nccs1,6.32,
N=C1S/C(=C\c2n[nH]nc2-c2ccc(F)cc2)C(=O)N1c1nccs1,,inactive
Cc1ccc(-c2nocc2/C=C2\SC(=N)N(c3nccs3)C2=O)cc1,,inactive
Cc1ccc(-c2ccc(-c3n[nH]cc3/C=C3\SC(=N)N(c4nccs4)C3=O)cc2)cc1,4.38,
N=C1S/C(=C\c2c[nH]nc2-c2ccccc2F)C(=O)N1c1nncs1,,inactive
COc1ccc(-c2n[nH]nc2/C=C2\SC(=N)N(c3nccs3)C2=O)cc1,,inactive
N=C1S/C(=C\c2cc(CC(N)=O)[nH]c2-c2ccc(F)cc2)C(=O)N1c1nccs1,,inactive
COc1ccc(-c2ccc(-c3n[nH]cc3/C=C3\SC(=N)N(c4nccs4)C3=O)cc2)cc1,2.59,
COc1ccccc1-c1ccc(-c2n[nH]cc2/C=C2\SC(=N)N(c3nccs3)C2=O)cc1,2.41,
N=C1S/C(=C\c2c[nH]nc2-c2ccc(-c3ccccc3)cc2)C(=O)N1c1nccs1,1.29,
N=C1S/C(=C\c2c[nH]nc2-c2ccc(-c3cccc(F)c3)cc2)C(=O)N1c1nccs1,48,
N=C1S/C(=C\c2c[nH]nc2-c2ccc(N3CCOCC3)cc2)C(=O)N1c1nccs1,2.93,
N=C1S/C(=C\c2c[nH]nc2-c2ccc(-c3ccc(F)cc3)cc2)C(=O)N1c1nccs1,3.87,
N=C1S/C(=C\c2c[nH]nc2-c2ccc(N3CCSCC3)cc2)C(=O)N1c1nccs1,3.3,
N=C1S/C(=C\c2n[nH]nc2-c2ccc(Cl)cc2)C(=O)N1c1nccs1,,inactive
N=C1S/C(=C\c2c[nH]nc2-c2ccccc2F)C(=O)N1c1nccs1,,inactive
N=C1S/C(=C\c2c[nH]nc2-c2ccc(F)cc2)C(=O)N1c1nncs1,,inactive
N=C1S/C(=C\c2c[nH]nc2-c2ccc(F)cc2)C(=O)N1c1nccs1,10.6,
N=C1S/C(=C\c2c[nH]nc2-c2ccccc2)C(=O)N1c1nncs1,,inactive
N=C1S/C(=C\c2c[nH]nc2-c2ccc(C(=O)N3CCCCC3)cc2)C(=O)N1c1nccs1,2.09,
Cc1csc(N2C(=N)S/C(=C\c3c[nH]nc3-c3ccc(F)cc3)C2=O)n1,5.25,
Cc1ccc(-c2n[nH]cc2/C=C2\SC(=N)N(c3nccs3)C2=O)cc1,7.77,
N=C1S/C(=C\c2c[nH]nc2-c2ccc(C(=O)N3CCOCC3)cc2)C(=O)N1c1nccs1,7.19,

Structure (SMILES),EC50 [µM],Activity
N=C1S/C(=C\c2c[nH]nc2-c2ccc(Br)cc2)C(=O)N1c1nccs1,34.5,
N=C1S/C(=C\c2c[nH]nc2-c2ccc(N3CCCC3)cc2)C(=O)N1c1nccs1,9.53,
N=C1S/C(=C\c2c[nH]nc2-c2ccc([N+](=O)[O-])cc2)C(=O)N1c1nccs1,23,
N=C1S/C(=C\c2conc2-c2ccc(Cl)cc2)C(=O)N1c1nccs1,,inactive
N=C1S/C(=C\c2c[nH]nc2-c2cccc(F)c2)C(=O)N1c1nccs1,,inactive
N=C1S/C(=C\c2c[nH]nc2-c2ccc(F)c(N3CCOCC3)c2)C(=O)N1c1nccs1,2.9,
N=C1S/C(=C\c2c[nH]nc2-c2ccc(Cl)cc2)C(=O)N1c1nccs1,15.6,
Cc1cc(/C=C2\SC(=N)N(c3nccs3)C2=O)c(-c2ccc(F)cc2)[nH]1,,inactive
N=C1S/C(=C\c2c[nH]nc2-c2ccc3c(c2)OCO3)C(=O)N1c1nccs1,34.8,
N=C1S/C(=C\c2conc2-c2ccc([N+](=O)[O-])cc2)C(=O)N1c1nccs1,,inactive
N=C1S/C(=C\c2n[nH]nc2-c2ccccc2)C(=O)N1c1nccs1,,inactive
N=C1S/C(=C\c2c[nH]nc2-c2ccc(-c3ccc(Cl)cc3)cc2)C(=O)N1c1nccs1,> 100,
N=C1S/C(=C\c2c[nH]nc2-c2ccc(O)cc2)C(=O)N1c1nccs1,32.7,
COc1ccc(-c2n[nH]cc2/C=C2\SC(=N)N(c3nccs3)C2=O)cc1,14.9,
Cc1cnc(N2C(=N)S/C(=C\c3c[nH]nc3-c3ccc(F)cc3)C2=O)s1,23.1,
N=C1S/C(=C\c2c[nH]nc2-c2ccccc2)C(=O)N1c1nccs1,40.6,
N=C1S/C(=C\c2c[nH]nc2-c2ccc(S(=O)(=O)c3ccccc3)cc2)C(=O)N1c1nccs1,1.78,
N=C1S/C(=C\c2c[nH]nc2-c2cccc(F)c2)C(=O)N1c1nncs1,,inactive
N=C1S/C(=C\c2c[nH]nc2-c2ccc(N3CCCCC3)cc2)C(=O)N1c1nccs1,6.36,
N=C1S/C(=C\c2cc(-c3ccccc3)[nH]c2-c2ccc(F)cc2)C(=O)N1c1nccs1,,inactive
N=C1S/C(=C\c2cc(Cc3ccccc3)[nH]c2-c2ccc(F)cc2)C(=O)N1c1nccs1,,inactive
N=C1S/C(=C\c2conc2-c2ccc(F)cc2)C(=O)N1c1nccs1,,inactive
